In ChEMBL document CHEMBL4354835, “Selective Blockade of Neuronal BK (α + β4) Channels Preventing Epileptic Seizure” (J Med Chem, 2020):
The source made the active and inactive calls. The calls are words filed in the database; no cut-off is given here.

Columns and labels:
[1] = molecular target: KCNMA1/KCNMB4 (Homo sapiens, UniProt Q12791+Q86W47); assay: Inhibition of human BK alpha/beta4 channel expressed in HEK293T cells assessed as K+ outward current fraction at 10 uM at -80 mV holding potential by whole cell patch clamp method relative to control; format: cell-based
[2] = species: Rattus norvegicus; assay: (§1) Neuroprotective activity in PTZ-induced epileptic seizure Sprague-Dawley rat model assessed as inhibition of hippocampal destruction by measuring increase in Nissl stained granular neurons in contralateral hippocampus DG region compound infused into hippocampal region and 10 mins later injected with PTZ and measured after 3 days by Nissl staining based microscopic analysis; format: functional, organism-based
[3] = species: Rattus norvegicus; assay: as §1, with “pyramidal” for “granular”, “CA3” for “DG”; format: functional, organism-based
[4] = species: Rattus norvegicus; assay: Anticonvulsant activity against PTZ-induced epileptic seizures Sprague-Dawley rat model assessed as decrease in number of seizures at high stage (stage 4 and 5) compound infused into hippocampal region and 10 mins later injected with PTZ and measured for 2 hrs post-PTZ stimulation; format: functional, organism-based
[5] = species: Rattus norvegicus; assay: (§2) Inhibition of C-Fos expression in PTZ-induced epileptic seizures Sprague-Dawley rat model assessed as inhibition of FLI-positive granular neurons in DG region of contralateral hippocampus at 10 uM compound infused into hippocampal region and 10 mins later injected with PTZ and measured after 2 hrs by immunohistochemistry; format: functional, organism-based
[6] = species: Homo sapiens; assay: Selectivity ratio of compound Kd for NT-495 fluorophore reagent labelled human BK beta4 E104K mutant to compound Kd for NT-495 fluorophore reagent labelled human BK beta4 (45 to 166 residues) by microscale thermophoresis assay
[7] = species: Rattus norvegicus; assay: as §2, with “pyramidal” for “granular”, “CA1” for “DG”, “ipsilateral” for “contralateral”; format: functional, organism-based
[8] = molecular target: T1, KCNMA1/KCNMB4 (Rattus norvegicus) (UniProt Q62976+Q9ESK8); assay: Inhibition of BK alpha/beta-4 in PTZ-stimulated rat hippocampal pyramidal neurons assessed as larger action potential width at 300 pA current injection at -80mV holding potential measured after 10 mins by whole cell current clamp assay; format: protein-complex assay
[9] = species: Rattus norvegicus; assay: Anticonvulsant activity against PTZ-induced epileptic seizure Sprague-Dawley rat model assessed as latency time of seizures compound infused into hippocampal region and 10 mins later injected with PTZ and measured for 2 hrs post PTZ-stimulation (reference value: 108.5 +/- 8.63 sec); format: functional
[10] = molecular target: T2, Calcium-activated potassium channel subunit beta-4 (Homo sapiens) (UniProt Q86W47); assay: Binding affinity to 15N-labelled human BK beta4 (45 to 166 residues) at compound: protein mole ratio of 1:4 by 1H-15N HSQC NMR spectroscopy
T2 sequence (whole entry): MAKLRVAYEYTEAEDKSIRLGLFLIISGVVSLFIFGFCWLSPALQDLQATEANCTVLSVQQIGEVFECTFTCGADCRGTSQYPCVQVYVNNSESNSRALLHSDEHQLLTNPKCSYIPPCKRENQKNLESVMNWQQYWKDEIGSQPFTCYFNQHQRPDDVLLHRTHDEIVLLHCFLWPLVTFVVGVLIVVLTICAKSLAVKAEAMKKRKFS

[11] = species: Homo sapiens; assay: Inhibition of human BK alpha/human beta4 Q124A mutant expressed in HEK293T cells assessed as K+ fractional outward current at 10 uM at -80 holding potential by whole cell patch clamp technique relative to control; format: cell-based
[12] = species: Rattus norvegicus; assay: Effect on neuronal network in PTZ-induced epileptic seizures Sprague-Dawley rat model assessed as reduced total PSD frequency waves compound infused into hippocampal region and 10 mins later injected with PTZ and measured after 2 hrs by power spectral density analysis; format: functional, organism-based
[13] = molecular target: T1, KCNMA1/KCNMB4 (Rattus norvegicus); assay: Inhibition of BK alpha/beta-4 in PTZ-stimulated rat hippocampal pyramidal neurons assessed as appearance of more action potential failures at -80mV holding potential measured after 10 mins during 300pA current injection by whole cell current clamp assay; format: protein-complex assay
[14] = species: Rattus norvegicus; assay: Effect on neuronal network in PTZ-induced epileptic seizures Sprague-Dawley rat model assessed as lowered PSD at beta wave band compound infused into hippocampal region and 10 mins later injected with PTZ and measured after 2 hrs by power spectral density analysis; format: functional, organism-based
[15] = species: Rattus norvegicus; assay: Effect on neuronal network in PTZ-induced epileptic seizures Sprague-Dawley rat model assessed as lowered PSD at delta wave band compound infused into hippocampal region and 10 mins later injected with PTZ and measured after 2 hrs by power spectral density analysis; format: functional, organism-based
[16] = species: Rattus norvegicus; assay: Anticonvulsant activity against PTZ-induced epileptic seizure Sprague-Dawley rat model assessed as duration of seizure compound infused into hippocampal region and 10 mins later injected with PTZ and measured for 2 hrs post PTZ-stimulation (reference value: 376 +/- 76.43 sec); format: functional
[17] = species: Rattus norvegicus; assay: as §1, with “pyramidal” for “granular”, “CA1” for “DG”; format: functional, organism-based
[18] = species: Rattus norvegicus; assay: as §2, with “pyramidal” for “granular”, “CA3” for “DG”, “ipsilateral” for “contralateral”; format: functional, organism-based
[19] = species: Rattus norvegicus; assay: Anticonvulsant activity against PTZ-induced epileptic seizure Sprague-Dawley rat model assessed as mortality rate compound infused into hippocampal region and 10 mins later injected with PTZ and measured for 2 hrs post PTZ-stimulation (reference value: 33.33%); format: functional
[20] = molecular target: Calcium-activated potassium channel subunit beta-4 (Homo sapiens, UniProt Q86W47, Q124A); assay: Binding affinity to NT-495 fluorophore reagent labelled human BK beta4 Q124A mutant incubated for 30 mins by microscale thermophoresis assay
Chain of Calcium-activated potassium channel subunit beta-4 (Q86W47 whole entry Q124A): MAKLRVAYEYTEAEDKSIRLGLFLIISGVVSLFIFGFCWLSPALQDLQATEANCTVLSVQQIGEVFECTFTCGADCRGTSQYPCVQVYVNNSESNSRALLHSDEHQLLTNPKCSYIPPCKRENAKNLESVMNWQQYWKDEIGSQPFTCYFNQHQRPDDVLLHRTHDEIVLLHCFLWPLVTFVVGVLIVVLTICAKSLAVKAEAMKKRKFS

[21] = species: Homo sapiens; assay: Inhibition of human BK alpha/human beta-4 E104K mutant expressed in HEK293T cells assessed as K+ fractional outward current at 10 uM at -80 mV holding potential by whole cell patch clamp technique relative to control; format: cell-based
[22] = molecular target: T1, KCNMA1/KCNMB4 (Rattus norvegicus); assay: Inhibition of BK alpha/beta-4 in rat hippocampal pyramidal neurons assessed as inhibition of PTZ-induced action potential at -80 mV holding potential at 300 pA current injection measured after 10 mins by whole cell current clamp assay
[23] = species: Homo sapiens; assay: Selectivity ratio of compound Kd for NT-495 fluorophore reagent labelled human BK beta4 Q124A mutant to compound Kd for NT-495 fluorophore reagent labelled human BK beta4 (45 to 166 residues) by microscale thermophoresis assay
[24] = molecular target: T1, KCNMA1/KCNMB4 (Rattus norvegicus); assay: Inhibition of BK alpha/beta-4 in PTZ-stimulated rat hippocampal pyramidal neurons assessed as slower decay of after hyperpolarization at 300 pA at -80mV holding potential measured after 10 mins by whole cell current clamp assay; format: protein-complex assay
[25] = species: Rattus norvegicus; assay: as §2, with “ipsilateral” for “contralateral”; format: functional, organism-based
[26] = species: Rattus norvegicus; assay: as §1, with “pyramidal” for “granular”, “ipsilateral” for “contralateral”, “CA1” for “DG”; format: functional, organism-based
[27] = species: Rattus norvegicus; assay: as §2, with “pyramidal” for “granular”, “CA3” for “DG”; format: functional, organism-based
[28] = species: Homo sapiens; assay: Inhibition of human BK alpha/human beta-4 E128K mutant expressed in HEK293T cells assessed as K+ fractional outward current at 10 uM at -80 mV holding potential by whole cell patch clamp technique relative to control; format: cell-based
[29] = molecular target: T1, KCNMA1/KCNMB4 (Rattus norvegicus); assay: Inhibition of BK alpha/beta-4 in PTZ-stimulated rat hippocampal pyramidal neurons assessed as longer interval of interspike at -80mV holding potential measured after 10 mins during 300pA current injection by whole cell current clamp assay; format: protein-complex assay

CC[C@H](C)[C@H](NC(=O)[C@H](CC(C)C)NC(=O)CNC(=O)[C@H](Cc1ccccc1)NC(=O)[C@H](CO)NC(=O)CN)C(=O)N[C@@H](CC(=O)O)C(=O)N[C@H](C(=O)N[C@@H](CCCCN)C(=O)N[C@H]1CSSC[C@@H]2NC(=O)[C@H](CCCCN)NC(=O)CNC(=O)[C@H](CCC(N)=O)NC(=O)CNC(=O)[C@H](CO)NC(=O)CNC(=O)[C@H]([C@@H](C)O)NC(=O)[C@H](C(C)C)NC(=O)[C@H](CCCCN)NC(=O)[C@H](CCCCN)NC(=O)[C@@H]3CSSC[C@@H](C(=O)N[C@@H](Cc4ccc(O)cc4)C(=O)O)N[C@@H](CCCNC(=N)N)C(=O)[C@H](CSSC[C@H](NC(=O)[C@H](CCC(=O)O)NC(=O)[C@H](CO)NC(=O)[C@H](CO)NC(=O)[C@H](C)NC(=O)[C@H](Cc4ccccc4)NC1=O)C(=O)N[C@@H](Cc1c[nH]c4ccccc14)C(=O)N[C@@H]([C@@H](C)O)C(=O)N[C@@H](C)C(=O)N3)N[C@@H](CCC(N)=O)C(=O)NC(=O)[C@H](CC(N)=O)NC(=O)[C@H](CC(N)=O)NC(=O)[C@H](CCC(N)=O)NC2=O)C(C)C
Ratio [1]: 0.33 | Activity [2]: Active | Activity [3]: Active | Activity [4]: Active | inhibition [5]: Active | Selectivity ratio [6]: 1.4 | inhibition [7]: Active | inhibition [8]: Active | Time [9]: 378.5 s | Activity [10]: Active | Ratio [11]: 0.6 | inhibition [12]: Active | inhibition [13]: Active | Activity [14]: Active | Activity [15]: Active | Time [16]: 198 s | Activity [17]: Active | inhibition [18]: Active | mortality [19]: 0% | Kd [20]: 975 µM | Ratio [21]: 0.94 | inhibition [22]: Active | Selectivity ratio [23]: 2 | inhibition [24]: Active | inhibition [25]: Active | Activity [26]: Active | inhibition [27]: Active | Ratio [28]: 0.75 | inhibition [29]: Active
